Reference: PMC4741798, “Imaging of carbonic anhydrase IX with an ^111In-labeled dual-motif inhibitor” (Oncotarget, 2015)
Entries after “also recorded” stand apart in the source; their conditions may differ.

Legend:
[1] = test system: CAIX-expressing SK-RC-52 cells; test: FACS analysis of cell binding; assay type: cell-based
Protocol: (§1) CAIX-positive SK-RC-52 and CAIX-negative BxPC3 cells were maintained in RPMI 1640 media supplemented with 10% FBS and 1 × penicillin-streptomycin in a 37°C humidified incubator. Cells were detached from the flask with trypsin and reconstituted in RPMI 1640 media supplemented with 1% FBS at a density of 1 × 10^6 cells per mL. FITC-labeled 8 was added to the cells at the indicated concentration and incubated at room temperature for 30 min. Cells were washed twice with the same media for staining and analyzed using the FACSCalibur (BD Bioscience, San Jose, CA) instrument.

[2] = test system: CAIX-negative BxPC3 cells; test: FACS analysis of cell binding; assay type: cell-based; details: 30 min room temperature
Protocol: as §1

CAII = molecular target: T1, CAII (Homo sapiens, UniProt P00918); test: Fluorescence polarization for affinity comparison (saturation binding); details: Fig. 4A
T1 construct: purchased R&D Systems
Protocol: (§2) Figure 4 Compound 8 had higher binding affinity to CAIX compared to CAII and CAXII Saturation binding curves for CAII, CAIX, and CAXII were generated. 5 nM of compound 8 was titrated by increasing concentrations of CAII, CAIX, and CAXII and the resultant fluorescence polarization (mP) was measured, with EC50 values calculated. […] The target in front of each value (CAII, CAIX, CAXII) is taken from the x-axis title of that panel.
(§3) Human recombinant CAII, CAIX, and CAXII were purchased from R&D systems (Minneapolis, MN). 5 nM of FITC-labeled 8 were mixed with serially diluted (from 1 μM to 19 fM) isoforms of the carbonic anhydrases in PBS within 384 well Small Volume™ LoBase Microplates (Greiner Bio-One, Frickenhausen Germany). The mixtures were incubated at room temperature for 1 h. Fluorescence polarization was measured using a Safire2™ plate reader (Tecan, Morrisville, NC), with 475 nm excitation and 530 nm emission wavelengths.

CAXII = molecular target: T2, CAXII (Homo sapiens, UniProt O43570); test: as above; details: Fig. 4C
T2 construct: purchased R&D Systems
Protocol: as §2, §3

CAIX = molecular target: CAIX; parameters: method as in PMID 25698334; details: reported value; cited from earlier work
[3] = test system: CAIX-expressing SK-RC-52 cells; test: Fluorescence microscopic analyses of labeled cells; assay type: cell-based; details: 100 nM of 8 for 1 h; BxPC3 as negative cells
Protocol: CAIX-positive SK-RC-52 and CAIX-negative BxPC3 cells were seeded on to 8-well chamber glass slides (Lab-Tek®IICC^2™, Nunc, Rochester NY) and incubated in RPMI 1640 media supplemented with 10% FBS and 1 × penicillin-streptomycin in a 37°C humidified incubator for 48 h. Cells were stained with 100 nM of FITC-labeled 8 for 1 h in the same growth media followed by washing twice with the same media. Cells were fixed with 10% formaldehyde (Sigma-Aldrich, Saint Louis, MO) and washed three times with PBS. Cells were treated with 20 nM DAPI (4′,6-diamidino-2-phenylindole) in PBS. The chambers were removed and the Vectashield mounting solution (Vector Laboratories, Inc., Burlingame, CA) was added to the sample. Fluorescence microscopic images were taken using the Nikon Eclipse 80i epifluorescence microscope (Nikon Instruments Inc., Melville, NY) and the images were processed by the Element software (Nikon Instruments Inc.).

T2 sequence (O43570 25-354): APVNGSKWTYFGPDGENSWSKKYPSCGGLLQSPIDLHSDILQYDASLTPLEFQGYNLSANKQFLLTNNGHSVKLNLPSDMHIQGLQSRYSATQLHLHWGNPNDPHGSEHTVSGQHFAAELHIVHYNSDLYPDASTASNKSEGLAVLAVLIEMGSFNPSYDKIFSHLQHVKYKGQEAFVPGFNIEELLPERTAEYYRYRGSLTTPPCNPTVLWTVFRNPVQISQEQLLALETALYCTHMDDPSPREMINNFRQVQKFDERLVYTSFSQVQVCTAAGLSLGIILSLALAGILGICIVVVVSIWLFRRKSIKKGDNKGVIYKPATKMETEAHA

binding affinity to cytosolic CAII (in words) (CAII): poor binding affinity
affinity to CAXII relative to CAIX (in words) (CAXII): about three-fold lower affinity
Structure (SMILES): CC(CCC(=O)N[C@@H](CC(=O)N[C@@H](CC(=O)N[C@@H](CCCCn1cc(CCCC(=O)Nc2nnc(S(N)(=O)=O)s2)nn1)C(=O)NCCOCCOCCNC(=S)Nc1ccc(-c2c3ccc(=O)cc-3oc3cc(O)ccc23)c(C(=O)O)c1)C(=O)O)C(=O)O)(c1ccc(O)cc1)c1ccc(O)cc1 [Compound 8]
lowest concentration with significant binding to cells (FACS) [1]: 10 nM
binding to cells by FACS (in words) ([1]; 30 min room temperature): bound specifically
binding to cells by FACS (in words) [2]: not to CAIX-negative BxPC3 cells
Kd (CAIX): 0.2 nM
cell surface staining by fluorescence microscopy (in words) [3]: Only SK-RC-52 cells were stained with 8 on the surface of the cells; also recorded: bound to the cell surface of SK-RC-52
